# According to BindingDB's records for patent US12281118 (Shanghai Ringene Biopharma, 2025):
# Biological target: T1, Tyrosine-protein phosphatase non-receptor type 11 (Homo sapiens, UniProt Q06124)
# T1 sequence (Q06124 whole entry): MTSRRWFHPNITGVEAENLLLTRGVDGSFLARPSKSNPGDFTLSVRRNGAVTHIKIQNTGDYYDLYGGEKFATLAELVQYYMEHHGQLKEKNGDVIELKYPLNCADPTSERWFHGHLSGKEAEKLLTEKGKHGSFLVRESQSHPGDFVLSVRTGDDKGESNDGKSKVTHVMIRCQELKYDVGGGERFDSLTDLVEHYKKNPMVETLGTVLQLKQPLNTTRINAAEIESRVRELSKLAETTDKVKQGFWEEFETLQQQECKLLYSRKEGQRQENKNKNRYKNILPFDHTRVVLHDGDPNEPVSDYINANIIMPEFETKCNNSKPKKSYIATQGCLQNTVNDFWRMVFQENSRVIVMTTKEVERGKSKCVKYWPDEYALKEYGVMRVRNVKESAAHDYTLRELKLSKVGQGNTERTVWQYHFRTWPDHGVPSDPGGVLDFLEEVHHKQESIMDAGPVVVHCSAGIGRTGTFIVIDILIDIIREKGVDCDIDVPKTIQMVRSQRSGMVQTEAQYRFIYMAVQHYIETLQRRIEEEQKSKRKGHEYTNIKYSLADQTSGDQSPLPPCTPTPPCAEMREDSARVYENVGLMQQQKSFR
# Test: Test of Inhibitory Activity Assay
# Procedure: (1) Preparing 1×Reaction Buffer according to the BPS Biosciences' Instructions for Use of the SHP2 enzyme. (2) Preparing a compound concentration gradient: Test the test compound at 10 μM under 3× dilution for 10 concentrations, diluting to a 100% dimethyl sulfoxide solution at a 100× final concentration in a 384-well plate, and diluting the compound with Precision 4× for 10 concentrations. […] (3) Preparing the activation peptide solution at a 5× final concentration with the 1×Reaction Buffer, adding 5 μL of the solution to a reaction plate, respectively, and centrifuging at 1000 rpm for 1 min. (4) Preparing an enzyme solution at a 2.5× final concentration with the 1×Reaction Buffer, adding 10 μL of the solution to the reaction plate, respectively, centrifuging at 1000 rpm for 1 min, and incubating at room temperature for 60 min. […] (6) Adding 30 μL of stop test solution to stop the reaction, centrifuging at 1000 rpm for […], and mixing well by shaking. (7) Reading the conversion rate with a Caliper EZ Reader. (7) Data analysis:%Inhibition=Conversion%_max-Conversion%_sampleConversion%_max-Conversion%_min×100Wherein: Conversion %/_sample is the reading of a conversion rate of a sample; Conversion %_min: mean of negative control wells, which represents the reading of a conversion rate in absence of enzyme activity wells; Conversion %_max: mean of a ratio of positive control wells, which represents the reading of a conversion rate in absence of compound inhibition wells.
row,SMILES,IC50
1,"Cc1nc(N2CCC3(CC2)Cc2ccccc2[C@H]3N)n2ccnc2c1Sc1cccnc1C(F)(F)F [US12281118, Example 2]",6.3 nM
2,"Cc1nc(N2CCC(C)(N)CC2)n2ncnc2c1-c1cccc(Cl)c1Cl [US12281118, Example 21]",> 1000 nM
3,"Cc1nc(N2CCC(C)(N)CC2)n2cnnc2c1-c1cccc(Cl)c1Cl [US12281118, Example 22]",> 1000 nM
4,"Cc1cc(N2CCC(C)(N)CC2)n2cnnc2c1-c1cccc(Cl)c1Cl [US12281118, Example 23]",> 1000 nM

# Results, then the molecule that gave them:
row,IC50,SMILES
1,65 nM,"Cc1nc(N2CCC(C)(N)CC2)n2ccnc2c1Sc1cccc(Cl)c1Cl [US12281118, Example 25]"
2,53 nM,"CC1(N)CCN(c2nc(CF)c(-c3cccc(Cl)c3Cl)c3nccn23)CC1 [US12281118, Example 28]"
